Data from the SangsterLogP compilation.

Compound	logP
O=C(NCCCCN1CCC(Nc2cccc(C(F)(F)F)c2)CC1)c1ccc(Br)cc1	3.76
CS(=O)(=O)N[C@H]1CC[C@H](CCN2CCN(c3cccc(Cl)c3Cl)CC2)CC1	4.03
O=C(Nc1ccc2[nH]c(=O)oc2c1)C(=O)N1CCC(Cc2ccccc2)CC1	3.78
O=C(CNc1ccc2[nH]c(=O)[nH]c2c1)N1CCC(Cc2ccc(F)cc2)CC1	3.21
CCC(O)NC1CCC(CCN2CCN(c3cccc(Cl)c3Cl)CC2)CC1 (stereo not given)	4.29
O=C(NCCCCN1CCC(c2cccc(C(F)(F)F)c2)CC1)c1ccc(Br)cc1	4.28
N#Cc1cc(N2CCN(CCCCNC(=O)C=Cc3cccnc3)CC2)cc(C(F)(F)F)c1	3.62
CC(=O)NC1CCC(CCN2CCN(c3cccc(Cl)c3Cl)CC2)CC1 (stereo not given)	4.18
N#Cc1cc(N2CCN(CCCCNC(=O)c3cnc4ccccc4c3)CC2)cc(C(F)(F)F)c1	4.55
O=C(NCCCCN1CCC(Oc2cccc(C(F)(F)F)c2)CC1)c1ccnc2ccccc12	4.22
